In ChEMBL document CHEMBL4118121, “Anticomplement compounds from Polygonum chinense” (Bioorg Med Chem Lett, 2018):
In brackets after ≈: the same amount, converted by molar mass. Activity calls are given as the source filed them. The rule behind the calls is not given here.

Key:
Erythrocyte [1] = experiment: Anticomplement activity in rabbit erythrocytes assessed as concentration required for 50% hemolytic inhibition by alternative pathway pretreated for 10 mins with normal human serum followed by erythrocyte addition measured after 30 mins by spectrophotometeric method; assay type: functional, cell-based; conditions: Oryctolagus cuniculus
Erythrocyte [2] = experiment: Anticomplement activity in sheep erythrocytes assessed as concentration required for 50% hemolytic inhibition by classic pathway pretreated for 10 mins with guinea pig serum followed by erythrocyte addition measured after 30 mins by spectrophotometeric method; assay type: functional, cell-based; conditions: Ovis aries
Erythrocyte [3] = experiment: Anticomplement activity in sheep erythrocytes assessed as inhibition of complete hemolysis by classical pathway after 30 mins of compound treatment in normal human serum; assay type: functional; conditions: Ovis aries, 0.5 h
Erythrocyte [4] = experiment: Anticomplement activity in sheep erythrocytes assessed as inhibition of hemolysis by classical pathway after 30 mins of compound treatment in normal human serum with C3-depleted sera; assay type: functional, cell-based; conditions: Ovis aries
Erythrocyte [5] = experiment: Anticomplement activity in sheep erythrocytes assessed as inhibition of hemolysis by classical pathway after 30 mins of compound treatment in normal human serum with C5-depleted sera; assay type: functional, cell-based; conditions: Ovis aries
Erythrocyte [6] = experiment: Anticomplement activity in sheep erythrocytes assessed as inhibition of hemolysis by classical pathway after 30 mins of compound treatment in normal human serum with C1q-depleted sera; assay type: functional, cell-based; conditions: Ovis aries
Erythrocyte [7] = experiment: Anticomplement activity in sheep erythrocytes assessed as inhibition of hemolysis by classical pathway after 30 mins of compound treatment in normal human serum with C4-depleted sera; assay type: functional, cell-based; conditions: Ovis aries
Erythrocyte [8] = experiment: Anticomplement activity in sheep erythrocytes assessed as inhibition of hemolysis by classical pathway after 30 mins of compound treatment in normal human serum with C9-depleted sera; assay type: functional, cell-based; conditions: Ovis aries
Erythrocyte [9] = experiment: Anticomplement activity in sheep erythrocytes assessed as inhibition of hemolysis by classical pathway after 30 mins of compound treatment in normal human serum with C2-depleted sera; assay type: functional, cell-based; conditions: Ovis aries
Erythrocyte [10] = experiment: Anticomplement activity in sheep erythrocytes assessed as inhibition of hemolysis by classical pathway by measuring hemolysis after 30 mins of compound treatment in normal human serum with C4-depleted sera relative to control; assay type: functional, Ovis aries
Erythrocyte [11] = experiment: Anticomplement activity in sheep erythrocytes assessed as inhibition of hemolysis by classical pathway by measuring hemolysis after 30 mins of compound treatment in normal human serum with C9-depleted sera relative to control; assay type: functional, Ovis aries
Erythrocyte [12] = experiment: Anticomplement activity in sheep erythrocytes assessed as inhibition of hemolysis by classical pathway by measuring hemolysis after 30 mins of compound treatment in normal human serum with C3-depleted sera relative to control; assay type: functional, Ovis aries
Erythrocyte [13] = experiment: Anticomplement activity in sheep erythrocytes assessed as inhibition of hemolysis by classical pathway by measuring hemolysis after 30 mins of compound treatment in normal human serum with C5-depleted sera relative to control; assay type: functional, Ovis aries

Row | SMILES | IC50 (Erythrocyte [1]) | IC50 (Erythrocyte [2]) | other results
1 | COC(=O)C1CC(=O)c2oc(=O)c3cc(O)c(O)c(O)c3c21 (configuration not stated) [METHYLBREVIFOLIN CARBOXYLATE] | 1260 µM | 1040 µM | –
2 | COc1cc([C@@H](O)[C@@H]2C(=O)NCCc3ccc(cc3)Oc3ccc(cc3)CCNC(=O)/C=C/c3cc(OC)c(O)c2c3)ccc1O | 720 µM | 520 µM | –
3 | Cc1ccc(C(=O)Nc2ccc(S(=O)(=O)O)c3cc(S(=O)(=O)O)cc(S(=O)(=O)O)c23)cc1NC(=O)c1cccc(NC(=O)Nc2cccc(C(=O)Nc3cc(C(=O)Nc4ccc(S(=O)(=O)O)c5cc(S(=O)(=O)O)cc(S(=O)(=O)O)c45)ccc3C)c2)c1 [SURAMIN] | 180 µM | 120 µM | –
4 | COc1cc(/C=C/C(=O)OCCc2ccc(O)cc2)ccc1O | 1010 µM | 660 µM | –
5 | COc1cc2c(=O)oc3c(O)c(OC)cc4c(=O)oc(c1O)c2c34 | 1310 µM | 1100 µM | –
6 | COc1c(O)cc2c(=O)oc3c(O)c(O)cc4c(=O)oc1c2c34 | 670 µM | 580 µM | –
7 | CCOC(=O)[C@@H](CC(=O)OC)[C@H]1c2c(cc(O)c(O)c2O)C(=O)O[C@@H]1C(=O)OCC | 1530 µM | 1250 µM | –
8 | O=c1oc2c(O)c(O)cc3c(=O)oc4c(O)c(O)cc1c4c23 [ELLAGIC ACID] | 320 µM | 320 µM | –
9 | CC1(C)OC[C@H]([C@@H]2OC(=O)[C@]3(O)[C@@H]2OC(=O)C[C@H]3c2ccc(O)cc2)O1 | 1170 µM | 920 µM | –
10 | CCOC(=O)[C@H]1OC(=O)c2cc(O)c(O)c(O)c2[C@@H]1CC(=O)OC | 1840 µM | 1450 µM | –
11 | CCOC(=O)c1cc(O)c(O)c(O)c1 [ETHYLGALLATE] | 1240 µM | 1000 µM | –
12 | COc1c(O)cc2c(=O)oc3c(O)c(O[C@@H]4O[C@@H](C)[C@H](O)[C@@H](O)[C@H]4O)cc4c(=O)oc1c2c34 | 260 µM | 180 µM | MIC (Erythrocyte [3]): 340 µM (≈ 157 µg/mL); inhibition (Erythrocyte [4]): Active; inhibition (Erythrocyte [5]): Active; inhibition (Erythrocyte [6]): Active
13 | O=C(O)c1cc(O)c(O)c(O)c1 [GALLIC ACID] | 740 µM | 590 µM | –
14 | O=C(O)/C=C/c1ccc(O)c(O)c1 [CAFFEIC ACID] | 940 µM | 750 µM | –
15 | COc1cc(/C=C(/C(=O)NCCc2ccc(O)cc2)c2cc(OC)c(O)c(OC)c2)ccc1O | 2800 µM | 1340 µM | –
16 | COc1c(O)cc2c(=O)oc3c(OC)c(O[C@@H]4OC[C@@H](O)[C@H](O)[C@H]4O)cc4c(=O)oc1c2c34 | 290 µM | 230 µM | –
17 | O=C(O)C[C@H](C(=O)O)[C@H]1c2c(cc(O)c(O)c2O)C(=O)O[C@@H]1C(=O)O | 730 µM | 620 µM | –
18 | COc1c(O)cc2c(=O)oc3c(OC)c(O)cc4c(=O)oc1c2c34 | 1070 µM | 870 µM | –
19 | CCOC(=O)C1CC(=O)c2oc(=O)c3cc(O)c(O)c(O)c3c21 (configuration not stated) [ETHYLBREVIFOLIN CARBOXYLATE] | 1360 µM | 1080 µM | –
20 | CCOC(=O)[C@H]1OC(=O)c2cc(O)c(O)c(O)c2[C@@H]1[C@H](CC(=O)O)C(=O)O | 550 µM | 460 µM | inhibition (Erythrocyte [7]): Active; MIC (Erythrocyte [3]): 840 µM (≈ 323 µg/mL); inhibition (Erythrocyte [4]): Active; inhibition (Erythrocyte [8]): inactive; inhibition (Erythrocyte [9]): inactive; inhibition (Erythrocyte [5]): Active; inhibition (Erythrocyte [6]): inactive
21 | COC(=O)c1cc(O)c(O)c(O)c1 [GALLIC ACID METHYL ESTER] | 1070 µM | 840 µM | –
22 | COc1cc([C@@H]2OC(=O)[C@@H]3[C@H]2CO[C@H]3c2ccc(O)c(OC)c2)ccc1O | 1160 µM | 880 µM | –
23 | CCOC(=O)[C@@H](CC(=O)O)[C@H]1c2c(cc(O)c(O)c2O)C(=O)O[C@@H]1C(=O)OCC | 870 µM | 770 µM | –
24 | COc1cc(/C=C/C(=O)NCCc2ccc(O)cc2)ccc1O [N-TRANS-FERULOYL TYRAMINE] | 1330 µM | 880 µM | –
25 | COc1cc([C@H]2c3cc(O)c(OC)cc3/C(=C/C(=O)NCCc3ccc(O)cc3)[C@H]2C(=O)NCCc2ccc(O)cc2)ccc1O | 420 µM | 390 µM | inhibition (Erythrocyte [7]): Active; MIC (Erythrocyte [3]): 820 µM (≈ 512 µg/mL); inhibition (Erythrocyte [4]): Active
26 | O=C1CCc2c1oc(=O)c1cc(O)c(O)c(O)c21 | 1560 µM | 1250 µM | –
27 | O=C1C[C@@H](c2ccc(O)cc2)[C@]2(O)C(=O)O[C@@H]([C@H](O)CO)[C@H]2O1 | 990 µM | 730 µM | MIC (Erythrocyte [3]): 1760 µM (≈ 571 µg/mL); inhibition (INH) (Erythrocyte [10]): <10.6%; inhibition (INH) (Erythrocyte [11]): <10.6%; inhibition (INH) (Erythrocyte [12]): <10.6%; inhibition (Erythrocyte [9]): inactive; inhibition (Erythrocyte [6]): inactive; inhibition (INH) (Erythrocyte [13]): <10.6%
28 | CC(=O)N[C@H]1[C@@H](O[C@H]2[C@H](O)[C@@H](O)[C@H](O[C@H]3[C@H](OS(=O)(=O)O)[C@@H](OS(=O)(=O)O)[C@@H](O[C@H]4[C@H](O)[C@@H](OS(=O)(=O)O)C(O)O[C@H]4C(=O)O)O[C@@H]3CO)O[C@@H]2C(=O)O)O[C@H](COS(=O)(=O)O)[C@@H](O)[C@@H]1O (some centres not stated) | 135 µg/mL | 93 µg/mL | –
